Test results reported in ChEMBL document CHEMBL2163338, “Development of triazene prodrugs for ADEPT strategy: new insights into drug delivery system based on carboxypeptidase G2 activation” (Bioorg Med Chem Lett, 2012).

Columns and labels:
[1] = Half life in phosphate buffered saline at pH 7.4; type: physicochemical
Albumin = Albumin (Homo sapiens, UniProt P02768); test: Binding affinity to human serum albumin by HPLC analysis; type: ADME; details: isolated protein
[2] = Protein binding in human plasma; type: ADME, cell-free; details: read-out: PPB (converted)
Pseudomonas sp. [3] = test: Activity of Pseudomonas sp. carboxypeptidase G2 assessed as compound hydrolysis by Michaelis-Menten plot analysis
Pseudomonas sp. [4] = test: Activity of Pseudomonas sp. carboxypeptidase G2 assessed as half life of compound hydrolysis by UV spectrophotometric analysis
Pseudomonas sp. [5] = test: Ratio of Kcat to Km for Pseudomonas sp. carboxypeptidase G2

Albumin, sequence (P02768 whole entry): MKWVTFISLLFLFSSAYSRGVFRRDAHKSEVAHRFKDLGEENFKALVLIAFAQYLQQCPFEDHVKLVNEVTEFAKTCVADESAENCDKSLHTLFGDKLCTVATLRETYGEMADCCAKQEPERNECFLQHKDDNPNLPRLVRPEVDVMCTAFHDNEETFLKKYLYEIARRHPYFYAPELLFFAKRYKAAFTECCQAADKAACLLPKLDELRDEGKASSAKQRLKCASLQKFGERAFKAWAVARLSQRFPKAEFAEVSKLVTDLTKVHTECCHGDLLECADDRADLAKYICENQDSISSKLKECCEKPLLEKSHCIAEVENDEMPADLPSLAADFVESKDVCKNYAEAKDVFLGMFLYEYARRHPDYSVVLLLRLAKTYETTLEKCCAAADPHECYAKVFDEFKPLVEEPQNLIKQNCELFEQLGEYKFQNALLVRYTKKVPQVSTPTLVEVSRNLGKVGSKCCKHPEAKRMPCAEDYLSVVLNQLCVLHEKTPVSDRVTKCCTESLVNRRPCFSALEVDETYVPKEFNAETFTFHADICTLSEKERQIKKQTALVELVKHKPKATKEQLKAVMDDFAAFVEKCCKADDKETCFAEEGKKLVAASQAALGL

Row | SMILES | half-life [1] [h] | other results
1 | CN(C(=O)OCc1ccc(NC(=O)N[C@@H](CCC(=O)O)C(=O)O)cc1)c1ccc(N(CCI)CCI)cc1 | < 0.0667 | –
2 | CC(=O)c1ccc(/N=N/N(C)C(=O)N[C@@H](CCC(=O)O)C(=O)O)cc1 | 0.0433 | –
3 | CN(C(=O)OCc1ccc(NC(=O)N[C@@H](CCC(=O)O)C(=O)O)cc1)c1ccc(N(CCBr)CCBr)cc1 | < 0.0667 | –
4 | O=C(O)CC[C@H](NC(=O)Nc1ccc(COC(=O)Nc2ccc(N(CCI)CCI)cc2N(CCI)CCI)cc1)C(=O)O | < 0.0667 | –
5 | Cc1cc(NC(=O)Nc2ccc(N(CCCl)CCCl)cc2)c2ccccc2n1 | 16.5 | –
6 | CN(/N=N/c1ccc(Br)cc1)C(=O)N[C@@H](CCC(=O)O)C(=O)O | 3.66 | Activity (Albumin): Active
7 | CN(/N=N/c1ccc(C(N)=O)cc1)C(=O)N[C@@H](CCC(=O)O)C(=O)O | 0.107 | –
8 | Cc1ccc(/N=N/N(C)C(=O)N[C@@H](CCC(=O)O)C(=O)O)cc1 | 7.63 | –
9 | O=C(O)CC[C@H](NC(=O)Nc1ccc(N(CCCl)CCCl)c(F)c1)C(=O)O | < 0.283 | –
10 | O=C(O)CC[C@H](NC(=O)Nc1ccc(COC(=O)Nc2ccc(N(CCBr)CCBr)cc2N(CCBr)CCBr)cc1)C(=O)O | < 0.0667 | –
11 | O=C(O)CC[C@H](NC(=O)c1ccc(N(CCCl)CCCl)cc1)C(=O)O | – | fraction unbound [2]: 0.08
12 | CN(C(=O)OCc1ccc(NC(=O)N[C@@H](CCC(=O)O)C(=O)O)cc1)c1ccc(N(CCCl)CCCl)cc1 | – | Km (Pseudomonas sp. [3]): 6.1 µM
13 | O=C(O)CC[C@H](NC(=O)Nc1ccc(N(CCCl)CCCl)cc1)C(=O)O | 0.28 | Km (Pseudomonas sp. [3]): 3 µM
14 | CCOC(=O)c1ccc(/N=N/N(C)C(=O)N[C@@H](CCC(=O)OC)C(=O)OC)cc1 | 102 | –
15 | CCOC(=O)c1ccc(/N=N/N(C)C(=O)N[C@@H](CCC(=O)O)C(=O)O)cc1 | 2.89 | T1/2 (Pseudomonas sp. [4]): 5.7 min; kcat/Km (Pseudomonas sp. [5]): 410000 M⁻¹ s⁻¹; Km (Pseudomonas sp. [3]): 2.73 µM; Vmax (Pseudomonas sp. [3]): 1.18 µM/min; kcat (Pseudomonas sp. [3]): 1.11 s⁻¹
16 | CN(/N=N/c1ccc(C#N)cc1)C(=O)N[C@@H](CCC(=O)O)C(=O)O | 2.17 | T1/2 (Pseudomonas sp. [4]): 3.5 min; kcat/Km (Pseudomonas sp. [5]): 260000 M⁻¹ s⁻¹; Km (Pseudomonas sp. [3]): 17.7 µM; Vmax (Pseudomonas sp. [3]): 4.94 µM/min; kcat (Pseudomonas sp. [3]): 4.64 s⁻¹
17 | O=C(O)CC[C@H](NC(=O)Nc1ccc(N(CCCl)CCCl)c(Cl)c1)C(=O)O | < 0.283 | –
